For data set [1] the following is noted: human, in vivo.
Data set [2] can be described thus: Stress, long-term and accelerated stability studies of soft gelatin capsule systems. The format is physicochemical. Particulars: 1 month at 70° C., long-term (3 years), accelerated (6 months). The source says: An advantage of such soft gelatin capsule containing a lipid suspension is that the water uptake into the formulation is very unlikely. The dosage form is divided into three different compartments, namely (a) a hydrophilic capsule shell and (b) the hydrophobic carrier system in which (c) the slightly hygroscopic powder of active substance is suspended. Due to ambient moisture the content of water may vary within these different compartments. It will migrate by diffusion until an equilibrium state is reached. The water content may affect different properties of the drug product, such as the chemical stability of the active substance (predominantly via hydrolysis), the dissolution of the active substance, or the elasticity of the capsule shell. The water uptake in the present system is primarily in the capsule shell. This can be shown by water vapour sorption experiments as well as by the correlation of the mass gain with the softening of the capsule (shown in FIG. 1). […] This is confirmed by the stress stability studies of, for example, 1 month at 70° C., and by long-term (3 years) and accelerated (6 months) stability study results for the systems in accordance with the present invention.

Data set [3] is described as follows: Phase I trials in cancer patients, dose proportionality of plasma exposure. The format is in vivo, human. Particulars: single dose and steady state, qd and bid dosing, visual inspection. The source says:
However, in three Phase I trials in cancer patients with various advanced solid tumors there was no sign for a deviation from a dose proportional increase in AUC and Cmax of the active substance observed through visual inspection neither after single dose nor at steady state for once and twice daily dosing (FIGS. 9 and 10). […] There was no deviation from dose-proportionality observed for drug plasma concentrations measured before drug administration at steady state (Cpre,ss) in cancer patients in various clinical trials, found through visual inspection.

Data set [4] in a line: Phase 2 monotherapy trials in NSCLC or HRPC patients, pre-dose plasma concentrations. The format is in vivo, human. Particulars: 150 and 250 mg twice daily, soft gelatin capsule.

Where two headings read alike, the source gives them in different places.

As to `COC(=O)c1ccc2c(c1)NC(=O)/C2=C(\Nc1ccc(N(C)C(=O)CN2CCN(C)CC2)cc1)c1ccccc1` [active substance, 3-Z-[1-(4-(N-((4-methyl-piperazin-1-yl)-methylcarbonyl)-N-methyl-amino)-anilino)-1-phenyl-methylene]-6-methoxycarbonyl-2-indolinone-monoethanesulphonate], in data set [1], the “time to reach maximum plasma concentration (median value)” value worked out at 2 h and the “time to reach maximum plasma concentration (range)” value lay within 0.75 to 6 h. In data set [1] (150 mg), the “plasma concentration of the active substance at maximum (gMean value)” value is on record as “about 9 ng/mL”. The “plasma concentration as % of the maximum plasma concentration” value in data set [1] (24 h) is “about 15%”. Moreover, the “plasma concentration as % of the maximum plasma concentration” value in data set [1] (48 h) was 7-8%. Further, the “effect of water uptake on chemical stability” value in data set [2] is listed as “not affect the chemical stability”. Also, in data set [3], the “gMean AUCτ,ss versus dose” value is given as “increased in a dose-proportional manner” and the “gMean Cmax,ss versus dose” value is reported as “increased in a dose-proportional manner”. In data set [4], the “pre-dose plasma concentrations at steady state versus dose” value is “no obvious deviation from a dose proportional increase”.

Source of the values: US10105323B2, “Pharmaceutical dosage form for immediate release of an indolinone derivative” (Boehringer Ingelheim International GmbH, priority 2008, dated 2018).
